For the experiment, the system named is MV-4-11 cells. As to the kind of experiment: Gene expression microarray analysis (Affymetrix PrimeView) and GSEA. It counts as cell-based, human. The arrangement: RFU PODN (11730768_x_at) / Fold change /veh PODN (11730768_x_at) / RFU LINC00158 (11744669_a_at) / Fold change /veh LINC00158 (11744669_a_at) / RFU DUSP10 (11751237_a_at) / Fold change /veh DUSP10 (11751237_a_at) / RFU ID3 (11757404_x_at) / Fold change /veh ID3 (11757404_x_at) / RFU PLEKHG5 (11737974_s_at) / Fold change /veh PLEKHG5 (11737974_s_at) / RFU LRRC4B (11730491_at) / Fold change /veh LRRC4B (11730491_at) / RFU GIMAP4 (11747438_a_at) / Fold change /veh GIMAP4 (11747438_a_at) / RFU KRT8 (11758183_x_at) / Fold change /veh KRT8 (11758183_x_at) / RFU CNN1 (11734310_a_at) / Fold change /veh CNN1 (11734310_a_at) / RFU VPS37D (11726825_at) / Fold change /veh VPS37D (11726825_at) / RFU C10orf10 (11716522_x_at) / Fold change /veh C10orf10 (11716522_x_at) / RFU KIR2DL2 /// KIR2DL4 /// KIR2DL5A /// KIR2DL5B /// KIR2DS1 /// KIR2DS2 /// KIR2DS3 /// KIR2DS4 /// KIR3DL3 /// KIR3DL3 /// KIR3DS1 (11738374_at) / Fold change /veh KIR2DL2 /// KIR2DL4 /// KIR2DL5A /// KIR2DL5B /// KIR2DS1 /// KIR2DS2 /// KIR2DS3 /// KIR2DS4 /// KIR3DL3 /// KIR3DL3 /// KIR3DS1 (11738374_at) / RFU C1QL1 (11718748_at) / Fold change /veh C1QL1 (11718748_at) / RFU TMPRSS4 (11747572_a_at) / Fold change /veh TMPRSS4 (11747572_a_at) / RFU HAMP (11756126_x_at) / Fold change /veh HAMP (11756126_x_at) / RFU RNFT2 (11725882_a_at) / Fold change /veh RNFT2 (11725882_a_at) / RFU NR4A2 (11747474_a_at) / Fold change /veh NR4A2 (11747474_a_at) / RFU ABCC12 (11746883_a_at) / Fold change /veh ABCC12 (11746883_a_at) / RFU TMEM136 (11760407_x_at) / Fold change /veh TMEM136 (11760407_x_at) / RFU CLDN22 /// WWC2 (11732394_at) / Fold change /veh CLDN22 /// WWC2 (11732394_at) / RFU HLA-DPB1 (11760878_x_at) / Fold change /veh HLA-DPB1 (11760878_x_at) / RFU SPINT1 (11716480_a_at) / Fold change /veh SPINT1 (11716480_a_at) / RFU GAP43 (11754022_s_at) / Fold change /veh GAP43 (11754022_s_at) / RFU A4GNT (11735810_at) / Fold change /veh A4GNT (11735810_at) / RFU PRB3 (11715151_x_at) / Fold change /veh PRB3 (11715151_x_at) / RFU TUBB4B (11761932_at) / Fold change /veh TUBB4B (11761932_at) / RFU CAPN14 (11732068_a_at) / Fold change /veh CAPN14 (11732068_a_at) / RFU TMCC2 (11721928_a_at) / Fold change /veh TMCC2 (11721928_a_at) / RFU IRGQ (11745062_a_at) / Fold change /veh IRGQ (11745062_a_at) / RFU FAM174B (11720279_a_at) / Fold change /veh FAM174B (11720279_a_at) / RFU TMPRSS4 (11748680_a_at) / Fold change /veh TMPRSS4 (11748680_a_at) / RFU FAM212B (11763350_a_at) / Fold change /veh FAM212B (11763350_a_at) / RFU PLEKHG5 (11743358_a_at) / Fold change /veh PLEKHG5 (11743358_a_at) / RFU ZSCAN30 (11745921_a_at) / Fold change /veh ZSCAN30 (11745921_a_at) / RFU CMKLR1 (11741424_a_at) / Fold change /veh CMKLR1 (11741424_a_at) / RFU LOC101060620 /// MAPK8IP1 (11723275_at) / Fold change /veh LOC101060620 /// MAPK8IP1 (11723275_at) / RFU SPTSSB (11747773_x_at) / Fold change /veh SPTSSB (11747773_x_at) / RFU PRSS12 (11739890_at) / Fold change /veh PRSS12 (11739890_at) / RFU BIN1 (11741810_x_at) / Fold change /veh BIN1 (11741810_x_at) / RFU WNT11 (11732464_a_at) / Fold change /veh WNT11 (11732464_a_at) / RFU C10orf10 (11716521_a_at) / Fold change /veh C10orf10 (11716521_a_at) / RFU C5orf56 (11738089_at) / Fold change /veh C5orf56 (11738089_at) / RFU CYB561 (11721691_x_at) / Fold change /veh CYB561 (11721691_x_at) / RFU ANKRD19P (11752326_a_at) / Fold change /veh ANKRD19P (11752326_a_at) / RFU OR2T12 /// OR2T33 /// OR2T8 (11738714_s_at) / Fold change /veh OR2T12 /// OR2T33 /// OR2T8 (11738714_s_at) / RFU VCAN (11748164_a_at) / Fold change /veh VCAN (11748164_a_at) / RFU JSRP1 (11732532_at) / Fold change /veh JSRP1 (11732532_at) / RFU KRTAP10-11 (11738290_x_at) / Fold change /veh KRTAP10-11 (11738290_x_at) / RFU MYO3A (11730013_a_at) / Fold change /veh MYO3A (11730013_a_at) / RFU EBF3 (11725865_a_at) / Fold change /veh EBF3 (11725865_a_at) / RFU CAMK2N1 (11719241_x_at) / Fold change /veh CAMK2N1 (11719241_x_at) / RFU C5orf56 (11738088_a_at) / Fold change /veh C5orf56 (11738088_a_at) / RFU OLFML3 (11715873_a_at) / Fold change /veh OLFML3 (11715873_a_at) / RFU LOC100653217 /// NTM (11731650_a_at) / Fold change /veh LOC100653217 /// NTM (11731650_a_at) / RFU MAPK11 (11762145_a_at) / Fold change /veh MAPK11 (11762145_a_at) / RFU FIZ1 (11724087_x_at) / Fold change /veh FIZ1 (11724087_x_at) / RFU OASL (11726364_x_at) / Fold change /veh OASL (11726364_x_at) / RFU SOX15 (11748057_x_at) / Fold change /veh SOX15 (11748057_x_at) / RFU CD79A (11719716_a_at) / Fold change /veh CD79A (11719716_a_at) / RFU HIST1H1D (11736915_at) / Fold change /veh HIST1H1D (11736915_at) / RFU CASKIN2 (11723855_a_at) / Fold change /veh CASKIN2 (11723855_a_at) / RFU LOC730098 (11760151_x_at) / Fold change /veh LOC730098 (11760151_x_at) / RFU OR4N2 (11742367_at) / Fold change /veh OR4N2 (11742367_at) / RFU PRRT2 (11749266_a_at) / Fold change /veh PRRT2 (11749266_a_at) / RFU SNX32 (11753110_a_at) / Fold change /veh SNX32 (11753110_a_at) / RFU CDHR5 (11726645_a_at) / Fold change /veh CDHR5 (11726645_a_at) / RFU RCAN1 (11760418_a_at) / Fold change /veh RCAN1 (11760418_a_at) / RFU FAM167A (11723789_a_at) / Fold change /veh FAM167A (11723789_a_at) / RFU FAM26E (11764081_at) / Fold change /veh FAM26E (11764081_at) / RFU ISYNA1 (11749810_s_at) / Fold change /veh ISYNA1 (11749810_s_at) / RFU ACY1 (11761880_at) / Fold change /veh ACY1 (11761880_at) / RFU 11764098_at / Fold change /veh 11764098_at / RFU SAMD14 (11745864_x_at) / Fold change /veh SAMD14 (11745864_x_at) / RFU NPB (11741838_a_at) / Fold change /veh NPB (11741838_a_at) / RFU TMPRSS6 (11731388_a_at) / Fold change /veh TMPRSS6 (11731388_a_at) / RFU KRTAP10-2 (11738614_at) / Fold change /veh KRTAP10-2 (11738614_at) / RFU ARHGAP8 /// PRR5-ARHGAP8 (11727945_x_at) / Fold change /veh ARHGAP8 /// PRR5-ARHGAP8 (11727945_x_at) / RFU KRTAP5-7 /// NADSYN1 (11734609_at) / Fold change /veh KRTAP5-7 /// NADSYN1 (11734609_at) / RFU RASL12 (11751679_a_at) / Fold change /veh RASL12 (11751679_a_at) / RFU CDKN2B (11736163_a_at) / Fold change /veh CDKN2B (11736163_a_at) / RFU PRF1 (11729649_at) / Fold change /veh PRF1 (11729649_at) / RFU, ZNF638 /// ZNF638-IT1 / Fold change vs veh, ZNF638 /// ZNF638-IT1 / RFU, PANK3 / Fold change vs veh, PANK3 / RFU, SH3YL1 / Fold change vs veh, SH3YL1 / RFU, ZEB2 / Fold change vs veh, ZEB2 / RFU, NRIP1 / Fold change vs veh, NRIP1 / RFU, PTTG1IP / Fold change vs veh, PTTG1IP / RFU, CAPN2 / Fold change vs veh, CAPN2 / RFU, MED14 / Fold change vs veh, MED14 / RFU, SNORA58 / Fold change vs veh, SNORA58 / RFU, C1orf63 / Fold change vs veh, C1orf63 / RFU, LRRFIP1 / Fold change vs veh, LRRFIP1 / RFU, NDUFAF7 / Fold change vs veh, NDUFAF7 / RFU, SLC12A2 / Fold change vs veh, SLC12A2 / RFU, IBTK / Fold change vs veh, IBTK / RFU, ESF1 / Fold change vs veh, ESF1 / Fold change vs veh, TMEM50B / RFU, TAOK1 / Fold change vs veh, TAOK1 / RFU, ACBD3 / Fold change vs veh, ACBD3 / RFU, TMA16 / Fold change vs veh, TMA16 / RFU, RWDD3 / Fold change vs veh, RWDD3 / RFU, BCAT1 / Fold change vs veh, BCAT1 / RFU, EDEM3 / Fold change vs veh, EDEM3 / RFU, TMEM33 / Fold change vs veh, TMEM33 / RFU, WDR75 / Fold change vs veh, WDR75 / RFU, AHCTF1 / Fold change vs veh, AHCTF1 / RFU, TFRC / Fold change vs veh, TFRC / RFU, ZDHHC17 / Fold change vs veh, ZDHHC17 / RFU, NOM1 / Fold change vs veh, NOM1 / RFU, ARL8B / Fold change vs veh, ARL8B / RFU, ZBTB11 / Fold change vs veh, ZBTB11 / RFU, TAMM41 / Fold change vs veh, TAMM41 / RFU, KIAA1704 /// LOC100996395 / Fold change vs veh, KIAA1704 /// LOC100996395 / RFU, ING1 / Fold change vs veh, ING1 / RFU, TRMT61B / Fold change vs veh, TRMT61B / RFU, FUBP3 / Fold change vs veh, FUBP3 / RFU, TP53 / Fold change vs veh, TP53 / RFU, TNKS2 / Fold change vs veh, TNKS2 / RFU, ZFP14 / Fold change vs veh, ZFP14 / RFU, ACTR2 / Fold change vs veh, ACTR2 / RFU, PPP3R1 / Fold change vs veh, PPP3R1 / RFU, PIK3R1 / Fold change vs veh, PIK3R1 / RFU, HNRNPA1 / Fold change vs veh, HNRNPA1 / RFU, RNF170 / Fold change vs veh, RNF170 / RFU, ZNF28 / Fold change vs veh, ZNF28 / RFU, RNGTT / Fold change vs veh, RNGTT / RFU, OGT / Fold change vs veh, OGT / RFU, BRD1 / Fold change vs veh, BRD1 / RFU, MARS / Fold change vs veh, MARS / RFU, ZNF655 / Fold change vs veh, ZNF655 / RFU, FAHD1 / Fold change vs veh, FAHD1 / RFU, BDP1 / Fold change vs veh, BDP1 / RFU, LRRCC1 / Fold change vs veh, LRRCC1 / RFU, ARID1A / Fold change vs veh, ARID1A / RFU, ZNF146 / Fold change vs veh, ZNF146 / RFU, ZNF330 / Fold change vs veh, ZNF330 / RFU, GPN3 / Fold change vs veh, GPN3 / RFU, C9orf123 / Fold change vs veh, C9orf123 / RFU, N4BP2L2 / Fold change vs veh, N4BP2L2 / RFU, ARFIP1 / Fold change vs veh, ARFIP1 / RFU, FAM179B / Fold change vs veh, FAM179B / RFU, BCL10 / Fold change vs veh, BCL10 / RFU, UHRF1BP1L / Fold change vs veh, UHRF1BP1L / RFU, BET1 / Fold change vs veh, BET1 / RFU, CNOT2 / Fold change vs veh, CNOT2 / RFU, ZNF268 / Fold change vs veh, ZNF268 / Fold change vs veh, ZNF507 / RFU, DGCR2 / Fold change vs veh, DGCR2 / RFU, WDSUB1 / Fold change vs veh, WDSUB1 / Fold change vs veh, HSP90B1 /// MIR3652 / RFU, ADSS / Fold change vs veh, ADSS / RFU, GK / Fold change vs veh, GK / RFU, ZNF148 / Fold change vs veh, ZNF148 / RFU, TAF9 / Fold change vs veh, TAF9 / RFU, SLC1A5 / Fold change vs veh, SLC1A5 / RFU, SLMO2 / Fold change vs veh, SLMO2 / RFU, ABCC4 / Fold change vs veh, ABCC4 / RFU, LOC101060439 /// RAP1B / Fold change vs veh, LOC101060439 /// RAP1B / RFU, RFX7 / Fold change vs veh, RFX7 / RFU, GTPBP10 / Fold change vs veh, GTPBP10 / RFU, CNEP1R1 / Fold change vs veh, CNEP1R1 / RFU, BIVM-ERCC5 /// ERCC5 / Fold change vs veh, BIVM-ERCC5 /// ERCC5 / RFU, ILF3 / Fold change vs veh, ILF3 / RFU 11762660_at / Fold change /veh 11762660_at / RFU VCAN (11757783_s_at) / Fold change /veh VCAN (11757783_s_at) / RFU DDX43 (11728927_at) / Fold change /veh DDX43 (11728927_at) / RFU KRT8 (11758188_x_at) / Fold change /veh KRT8 (11758188_x_at) / RFU NKD1 (11759106_at) / Fold change /veh NKD1 (11759106_at) / RFU SRD5A1 (11742802_a_at) / Fold change /veh SRD5A1 (11742802_a_at) / RFU TPSAB1 /// TPSB2 (11721975_s_at) / Fold change /veh TPSAB1 /// TPSB2 (11721975_s_at) / RFU GSTM3 (11746129_a_at) / Fold change /veh GSTM3 (11746129_a_at) / RFU IL23R (11737362_x_at) / Fold change /veh IL23R (11737362_x_at) / RFU TMEM51 (11727254_a_at) / Fold change /veh TMEM51 (11727254_a_at) / RFU PIWIL2 (11732686_x_at) / Fold change /veh PIWIL2 (11732686_x_at) / RFU ORM1 (11744905_x_at) / Fold change /veh ORM1 (11744905_x_at) / RFU CCDC152 (11743942_at) / Fold change /veh CCDC152 (11743942_at) / RFU ECM1 (11717891_a_at) / Fold change /veh ECM1 (11717891_a_at) / RFU IL23R (11748794_a_at) / Fold change /veh IL23R (11748794_a_at) / RFU TNFAIP8L3 (11732012_x_at) / Fold change /veh TNFAIP8L3 (11732012_x_at) / RFU MBOAT4 (11741988_at) / Fold change /veh MBOAT4 (11741988_at) / RFU 11764193_at / Fold change /veh 11764193_at / RFU TMEM53 (11763286_at) / Fold change /veh TMEM53 (11763286_at) / RFU MAGEB2 (11727129_at) / Fold change /veh MAGEB2 (11727129_at) / RFU TMEM200A (11744735_a_at) / Fold change /veh TMEM200A (11744735_a_at) / RFU CCDC152 (11751479_a_at) / Fold change /veh CCDC152 (11751479_a_at) / RFU FAM211A (11726209_a_at) / Fold change /veh FAM211A (11726209_a_at) / RFU RGS16 (11746705_a_at) / Fold change /veh RGS16 (11746705_a_at) / RFU VCAN (11755009_s_at) / Fold change /veh VCAN (11755009_s_at) / RFU RHOB (11743442_s_at) / Fold change /veh RHOB (11743442_s_at) / RFU RGS16 (11720943_a_at) / Fold change /veh RGS16 (11720943_a_at) / RFU RGS16 (11720944_at) / Fold change /veh RGS16 (11720944_at) / RFU, VPS4B / Fold change vs veh, VPS4B / RFU, CREB1 / Fold change vs veh, CREB1 / RFU, DNAJC13 / Fold change vs veh, DNAJC13 / RFU, GNAQ / Fold change vs veh, GNAQ / RFU, CDK5R1 / Fold change vs veh, CDK5R1 / RFU, ZRANB3 / Fold change vs veh, ZRANB3 / RFU, CUL4A / Fold change vs veh, CUL4A / RFU, CCNY / Fold change vs veh, CCNY / RFU, UFL1 / Fold change vs veh, UFL1 / RFU, COG3 / Fold change vs veh, COG3 / RFU, DIAPH2 / Fold change vs veh, DIAPH2 / RFU, SKA2 / Fold change vs veh, SKA2 / RFU, AFF3 / Fold change vs veh, AFF3 / RFU, LMF1 / Fold change vs veh, LMF1 / RFU, IPO11 / Fold change vs veh, IPO11 / RFU, DFFB / Fold change vs veh, DFFB / RFU, FOXP1 / Fold change vs veh, FOXP1 / RFU, CARD8 / Fold change vs veh, CARD8 / RFU, STRN3 / Fold change vs veh, STRN3 / RFU, ADK / Fold change vs veh, ADK / RFU, RASSF2 / Fold change vs veh, RASSF2 / RFU, WIPF1 / Fold change vs veh, WIPF1 / RFU, LARP1B / Fold change vs veh, LARP1B / RFU, RASA1 / Fold change vs veh, RASA1 / RFU, RB1 / Fold change vs veh, RB1 / RFU, PPFIA1 / Fold change vs veh, PPFIA1 / RFU, MAT2A / Fold change vs veh, MAT2A / RFU, CCT5 / Fold change vs veh, CCT5 / RFU, WDR92 / Fold change vs veh, WDR92 / RFU, CUX1 / Fold change vs veh, CUX1 / RFU, TTC7A / Fold change vs veh, TTC7A / RFU, TMEM135 / Fold change vs veh, TMEM135 / RFU, DEPTOR / Fold change vs veh, DEPTOR / RFU, CPM / Fold change vs veh, CPM / RFU, DNAJB6 / Fold change vs veh, DNAJB6 / RFU, CACNA2D3 / Fold change vs veh, CACNA2D3 / RFU, DTX4 / Fold change vs veh, DTX4 / RFU, TFCP2 / Fold change vs veh, TFCP2 / RFU, GMCL1 /// GMCL1P1 / Fold change vs veh, GMCL1 /// GMCL1P1 / RFU, AEBP2 / Fold change vs veh, AEBP2 / RFU, SNHG1 /// SNORD22 /// SNORD25 /// SNORD26 /// SNORD27 /// SNORD28 /// SNORD29 /// SNORD31 / Fold change vs veh, SNHG1 /// SNORD22 /// SNORD25 /// SNORD26 /// SNORD27 /// SNORD28 /// SNORD29 /// SNORD31 / Fold change (Aza/veh), C12orf56 (ProbeSet 11735607_a_at) / Fold change (ACY-1035/veh), C12orf56 (ProbeSet 11735607_a_at) / Fold change (Aza/veh), FGFR1OP (ProbeSet 11751329_s_at) / Fold change (ACY-1035/veh), FGFR1OP (ProbeSet 11751329_s_at) / Fold change (Aza/veh), VPS36 (ProbeSet 11739960_a_at) / Fold change (ACY-1035/veh), VPS36 (ProbeSet 11739960_a_at) / RFU SYPL1 (11715823_x_at) / Fold change /veh SYPL1 (11715823_x_at) / RFU IGFBP7 (11715501_s_at) / Fold change /veh IGFBP7 (11715501_s_at) / RFU REEP3 (11722064_at) / Fold change /veh REEP3 (11722064_at) / RFU IGLL1 (11728026_x_at) / Fold change /veh IGLL1 (11728026_x_at): dose or concentration left out as unconfirmed. As to conditions: MV-4-11 cells, 48 hours.

Turning to `Nc1ncn([C@@H]2O[C@H](CO)[C@@H](O)[C@H]2O)c(=O)n1` [azacitidine], the “RFU PRRT2 (11749266_a_at)” value amounted to 42.08 RFU.

For the origin of these results see PMC5218480 (PLoS ONE, 2017).
